Assay [1] deals with SARS-CoV-2. The assay can be described thus: microbe, parasite or virus in culture. Type of assay: cell-based.
Assay [2] has as its system endogenous furin-like enzymes. Type of assay: cell-based. Particulars: HeLa-ACE2 cells.
For assay [3], the system named is SARS-CoV-2. Type of assay: cell-based.
Another assay deals with furin-like convertases. Type of assay: cell-based. As to conditions: 1 μM; 293T17 producing cells and pseudovirions.
In a further assay the target is TMPRSS2 (Homo sapiens, UniProt O15393). Type of assay: cell-based. On the set-up: expressed in transfected cells; host or cells: HeLa. Particulars: HeLa cells.
TMPRSS2, sequence (O15393 whole entry, the tested form may be a part): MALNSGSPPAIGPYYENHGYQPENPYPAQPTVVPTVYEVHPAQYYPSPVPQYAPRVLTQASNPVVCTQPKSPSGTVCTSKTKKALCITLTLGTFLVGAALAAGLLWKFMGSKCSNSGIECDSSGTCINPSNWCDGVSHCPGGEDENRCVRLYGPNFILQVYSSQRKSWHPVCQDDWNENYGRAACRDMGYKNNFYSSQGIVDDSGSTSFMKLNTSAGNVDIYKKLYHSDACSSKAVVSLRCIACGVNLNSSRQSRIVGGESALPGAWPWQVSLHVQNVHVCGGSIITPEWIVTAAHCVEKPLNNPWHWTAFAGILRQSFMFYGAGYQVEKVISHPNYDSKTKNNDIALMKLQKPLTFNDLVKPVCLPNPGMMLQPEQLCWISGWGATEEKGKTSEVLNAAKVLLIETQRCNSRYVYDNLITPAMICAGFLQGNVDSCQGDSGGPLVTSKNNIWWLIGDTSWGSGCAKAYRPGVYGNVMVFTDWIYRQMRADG
In assay [4] the test system is SARS-CoV-2 Spike ACE2-dependent cell-to-cell fusion. The assay can be described thus: microbe, parasite or virus in culture. Type of assay: cell-based. As to conditions: Severe acute respiratory syndrome coronavirus 2; 300 nM.
The test system of assay [5] is HIV particles pseudotyped with SARS-CoV-2 S. Type of assay: cell-based.
The target of another assay is T1, PC7 (PCSK7) (Homo sapiens, UniProt Q16549).
T1 construct: PC7 (PCSK7; 142-634-Tev-Flag-6His); Tev site (C); Flag (C); 6His (C); made in house; host or cells: BacMam transduced CHO cells
T1 sequence (Q16549 142-634): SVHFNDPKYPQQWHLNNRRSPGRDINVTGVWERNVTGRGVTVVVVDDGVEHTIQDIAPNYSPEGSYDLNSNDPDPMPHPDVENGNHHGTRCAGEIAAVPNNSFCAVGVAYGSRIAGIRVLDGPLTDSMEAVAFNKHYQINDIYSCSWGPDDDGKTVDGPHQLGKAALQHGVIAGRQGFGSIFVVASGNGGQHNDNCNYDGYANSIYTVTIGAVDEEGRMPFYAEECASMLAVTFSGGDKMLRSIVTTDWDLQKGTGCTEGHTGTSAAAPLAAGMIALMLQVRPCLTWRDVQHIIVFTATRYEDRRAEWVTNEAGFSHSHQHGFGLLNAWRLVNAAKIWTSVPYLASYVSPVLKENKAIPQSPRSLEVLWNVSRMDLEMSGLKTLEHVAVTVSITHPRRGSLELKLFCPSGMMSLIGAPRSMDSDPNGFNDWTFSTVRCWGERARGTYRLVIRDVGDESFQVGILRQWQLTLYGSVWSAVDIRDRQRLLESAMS
The assay can be described thus: Biochemical PC-inhibition assay, substrate FAM-[…]-TAMRA. The procedure: (§1) Biochemical assay: The proprotein convertases furin (108-574-Tev-Flag-6His), PC5A (PCSK5; […]-Tev-Flag-6His), PACE4 (PCSK6; 150-693-Tev-Flag-6His), and PC7 (PCSK7; 142-634-Tev-Flag-6His) enzymes were purified from BacMam transduced CHO cells. […] 0.05 μl of each concentration was transferred to the corresponding well of an assay plate, and then 5 μl of enzyme (furin, PCSK5, PCSK6, and PCSK7) in assay buffer (100 mM HEPES pH 7.5, 1 mM CaCl2) and 0.005% Triton X-100) was added using a Multidrop Combi (Thermo) to the compound plates to give a final protein concentration of 0.02, 0.5, 2.5, and 1.0 nM respectively. The plates were mixed by inversion, and following a 30 min preincubation of enzyme with compound at room temperature (˜22° C.), the substrate FAM-[…] -TAMRA (AnaSpec #808143, 5 μl of a 1, 0.25, 0.20, and 0.5 μM solution in assay buffer for furin, PCSK5, PCSK6, and PCSK7 respectively) was added using a Multidrop Combi to the entire assay plate. The plates were centrifuged at 500×g for 1 minute and incubated at room temperature for two hours. Enzyme inhibition was then quantified using an Envision instrument (PerkinElmer). Data were normalized to maximal inhibition determined by 1 μM Decanoyl-Arg-Val-Lys-Arg-Chloromethylketone (Calbiochem #344930). Golgi imaging assay: This assay uses an image-based platform to evaluate the intracellular activity of furin inhibitors. Reactions were performed in black 384-well, tissue culture-treated, clear bottom plates (Greiner). Compounds under analysis were dissolved in DMSO (1.0 mM) and serially diluted 1 to 3 with DMSO through eleven dilutions. This creates a final compound concentration range from 0.00017 to 10 μM, and 0.1 μL of each concentration was transferred to the corresponding well of the assay plate.

The next assay concerns the target T2, PC5A (PCSK5) (Homo sapiens, UniProt Q92824).
T2 construct: fused on or other part: C-terminal Tev site, Flag tag and 6His tag
The description is as above. The method, then:
as §1

A further assay deals with T3, PACE4 (PCSK6) (Homo sapiens, UniProt P29122).
T3 construct: PACE4 (PCSK6; 150-693-Tev-Flag-6His); Tev site (C); Flag (C); 6His (C); made in house; host or cells: BacMam transduced CHO cells
T3 sequence (P29122 150-693): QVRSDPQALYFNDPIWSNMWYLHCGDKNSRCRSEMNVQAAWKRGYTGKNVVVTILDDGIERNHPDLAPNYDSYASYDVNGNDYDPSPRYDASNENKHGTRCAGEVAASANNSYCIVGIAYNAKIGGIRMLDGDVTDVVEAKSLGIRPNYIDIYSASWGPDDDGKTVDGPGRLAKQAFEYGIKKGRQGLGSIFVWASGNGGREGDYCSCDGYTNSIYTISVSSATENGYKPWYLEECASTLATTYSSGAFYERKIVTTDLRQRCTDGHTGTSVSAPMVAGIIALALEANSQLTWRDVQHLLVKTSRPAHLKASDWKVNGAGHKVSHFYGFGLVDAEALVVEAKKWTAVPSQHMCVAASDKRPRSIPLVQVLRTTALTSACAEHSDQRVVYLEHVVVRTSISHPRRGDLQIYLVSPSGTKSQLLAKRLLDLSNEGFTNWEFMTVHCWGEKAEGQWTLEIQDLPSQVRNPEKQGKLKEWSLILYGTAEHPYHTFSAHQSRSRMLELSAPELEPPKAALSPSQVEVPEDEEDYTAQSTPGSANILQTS
Described as above. The procedure:
as §1

A value given as a limit tells only on which side of the number the result lay.

T2 sequence (Q92824 115-601): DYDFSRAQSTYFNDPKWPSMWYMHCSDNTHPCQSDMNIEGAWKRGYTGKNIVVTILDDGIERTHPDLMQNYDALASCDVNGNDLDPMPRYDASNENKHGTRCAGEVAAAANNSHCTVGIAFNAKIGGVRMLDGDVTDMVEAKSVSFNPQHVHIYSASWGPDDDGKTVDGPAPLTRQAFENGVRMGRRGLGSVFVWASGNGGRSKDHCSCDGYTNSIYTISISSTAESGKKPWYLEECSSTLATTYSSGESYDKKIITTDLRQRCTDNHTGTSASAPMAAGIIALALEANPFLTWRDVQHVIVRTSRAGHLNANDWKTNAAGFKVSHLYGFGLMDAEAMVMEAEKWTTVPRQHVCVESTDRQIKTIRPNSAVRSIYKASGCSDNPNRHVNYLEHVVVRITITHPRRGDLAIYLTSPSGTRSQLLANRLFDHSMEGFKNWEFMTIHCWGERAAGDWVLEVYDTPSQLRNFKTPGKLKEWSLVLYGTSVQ

Take `CN1CCN(c2ncc(Oc3cc(CN4CCC(CC(=O)O)CC4)cc(-c4cc(Cl)cc(Cl)c4)n3)cn2)CC1` [Compound 93, 2-(1-((2-(3,5-dichloro-phenyl)-6-((2-(4-methyl-piperazin-1-yl)pyrimidin-5-yl)oxy)pyridin-4-yl)methyl)piperidin-4-yl)acetic acid]: the “Concentration from which inhibitory effect could be observed” value with SARS-CoV-2 [1] was 0.25 µM. The “Levels of viral spike and nucleocapsid proteins and progeny virus levels” value in the assay on SARS-CoV-2 [1] is “similarly decreased”. The “Viral titers at 12, 24 and 48h post-infection” value with SARS-CoV-2 [1] was “significantly decreased”. Further, the “Reduction of titer of progeny viruses” value with SARS-CoV-2 [1] (1 μM) was “more than 30 fold”. For the same compound, the IC50 – broadly, the midpoint of a concentration-inhibition curve – is 200 nM with SARS-CoV-2 [1] (Severe acute respiratory syndrome coronavirus 2, Calu-3, 24 h, read-out: IC50 (virus titer)); around 7 nM against PC7 (PCSK7); around 7 nM against PC5A (PCSK5); around 7 nM on PACE4 (PCSK6). In addition, in [2], the “S1/S2 and S2′ processing by endogenous furin-like enzymes” value is on record as “blocked”. Also, the “Virus production in infected Vero E6 cells” value in the assay with SARS-CoV-2 [3] was “modestly reduce virus production”. For the same compound, the “Decrease in virus production” value in the assay on SARS-CoV-2 [3] (1 μM) is listed as around 5.7 fold. Also, the “Processing of WT-S” value with furin-like convertases is “clearly impaired”. Further, the “Generation of S2a and S2b by TMPRSS2” value on TMPRSS2 is recorded as “none of the compounds affected”. In addition, the inhibition (as a rule, how much of the control response was suppressed) at 0.3 µM in assay [4] is above 60%. In [5], the “Viral entry in Calu-3 of pseudovirions packaged in presence of inhibitor” value is “prevents viral entry”.

Source of the values: patent US20230149401A1 (priority 2020, published 2023).
